Test results reported in patent US7273880B2, “Selective NPY (Y5) antagonists” (H. Lunbeck A/S, priority 1999, dated 2007).
Structures can show the parent of a compound that is named as a salt.

Biological target: T1, human Y5 receptor (hNPY-5) (Homo sapiens, UniProt Q15761)
T1 construct: expressed in transfected cells; host or cells: mouse fibroblast LM(tk-) cells, e.g. L-hY5-7 (ATCC CRL-11995)
T1 sequence (Q15761 1-445): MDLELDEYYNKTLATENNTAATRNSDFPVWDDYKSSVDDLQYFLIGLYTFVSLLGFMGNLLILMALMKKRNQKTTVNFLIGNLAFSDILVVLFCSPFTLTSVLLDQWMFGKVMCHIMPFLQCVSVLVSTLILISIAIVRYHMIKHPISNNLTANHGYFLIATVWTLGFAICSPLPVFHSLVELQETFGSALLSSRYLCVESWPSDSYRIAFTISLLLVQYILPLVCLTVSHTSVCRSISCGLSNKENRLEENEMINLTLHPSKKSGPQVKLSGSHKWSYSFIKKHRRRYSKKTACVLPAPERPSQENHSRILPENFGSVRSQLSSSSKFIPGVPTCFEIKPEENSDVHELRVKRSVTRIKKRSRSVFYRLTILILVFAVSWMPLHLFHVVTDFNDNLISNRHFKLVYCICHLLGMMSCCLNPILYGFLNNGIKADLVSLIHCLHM
Test: Radioligand binding to membranes, cloned human Y5 receptor
Conditions: cloned human NPY Y5 receptor, radioligand competition binding; Tables 1-3; read-out: Ki, nM hNPY-5
Protocol: Binding of the compounds of the present invention to human Y1, Y2, Y4, and Y5 receptors was evaluated using stably transfected 293 or LM(tk-) cells as described above. Stably transfected cell lines which may be used for binding assays include, for example, for the human Y1 receptor, 293-hY1-5 (deposited Jun. 4, 1996, under ATCC Accession No. CRL-12121), for the human Y2 receptor, 293-hY2-10 (deposited Jan. 27, 1994, under ATCC Accession No. CRL-11537), for the human Y4 receptor, L-hY4-3 (deposited Jan. 11, 1995, under ATCC Accession No. CRL-11779), and for human Y5 receptor, L-hY5-7 (deposited Nov. 15, 1995, under ATCC Accession No. CRL-11995). These cell lines were deposited with the American Type Culture Collection (ATCC), 10801 University Blvd., Manassas, Va. 20110-2209, U.S.A. under the provisions of the Budapest Treaty for the International Recognition of the Deposit of Microorganisms for the Purposes of Patent Procedure.
Membranes were harvested from COS-7 cells 48 hours after transient transfection. Adherent cells were washed twice in ice-cold phosphate buffered saline (138 mM NaCl, 8.1 mM Na2HPO4, 2.5 mM KCl, 1.2 mM KH2PO4, 0.9 mM CaCl2, 0.5 mM MgCl2, pH 7.4) and lysed by sonication in ice-cold sonication buffer (20 mM Tris-HCl, 5 mM EDTA, pH 7.7). Large particles and debris were cleared by low speed centrifugation (200×g, 5 min, 4° C.). Membranes were collected from the supernatant fraction by centrifugation (32,000×g, 18 min, 4° C.), washed with ice-cold hypotonic buffer, and collected again by centrifugation (32,000×g, 18 min, 4° C.). The final membrane pellet was resuspended by sonication into a small volume of ice-cold binding buffer (˜1 ml for every 5 plates: 10 mM NaCl, 20 mM HEPES, 0.22 mM KH2PO4, 1.26 mM CaCl2, 0.81 mM MgSO4, pH 7.4). Protein concentration was measured by the Bradford method (Bradford, 1976) using Bio-Rad Reagent, with bovine serum albumin as a standard. Membranes were held on ice for up to one hour and used fresh, or flash-frozen and stored in liquid nitrogen.
Membranes were prepared similarly from 293, LM(tk-), and NIH-3T3 cells. To prepare membranes from baculovirus infected cells, 2×10^7 Sf21 cells were grown in 150 mm tissue culture dishes and infected with a high-titer stock of hY5BB3. Cells were incubated for 2-4 days at 27° C., no CO2 before harvesting and membrane preparation as described above.
Membrane suspensions were diluted in binding buffer supplemented with 0.1% bovine serum albumin to yield an optimal membrane protein concentration so that ^125I-PYY (or alternative radioligand such as ^125I-NPY, ^125I-PYY3-36, or ^125I-[Leu^31Pro^34]PYY) bound by membranes in the assay was less than 10% of ^125I-PYY (or alternative radioligand) delivered to the sample (100,000 dpm/sample=0.08 nM for competition binding assays). ^125I-PYY (or alternative radioligand) and peptide competitors were also diluted to desired concentrations in supplemented binding buffer. Individual samples were then prepared in 96-well polypropylene microtiter plates by mixing 125I-PYY (25 μL) (or alternative radioligand), competing peptides or supplemented binding buffer (25 μL), and finally, membrane suspensions (200 μL). Samples were incubated in a 30° C. water bath with constant shaking for 120 min. Incubations were terminated by filtration over Whatman GF/C filters (pre-coated with 1% polyethyleneimine and air-dried before use), followed by washing with 5 mL of ice-cold binding buffer. Filter-trapped membranes were impregnated with MeltiLex solid scintillant (Wallac, Turku, Finland) and counted for ^125I in a Wallac Beta-Plate Reader. Alternatively, incubations were carried out in GF/C filter plates (pre-coated with 1% polyethyleneimine and air-dried before use), followed by vacuum filtration and three washes of 300 μL of ice-cold binding buffer. 50 μL of UltimaGold (Packard) scintillant were added and counted for ^125I in a Wallac MicroBeta Trilux. […]

SMILES | Ki
CC(C)S(=O)(=O)N[C@H]1CC[C@H](CNc2nc3c(s2)CCCc2ccc(F)cc2-3)CC1 [Example 53, trans-1-Aza-9-fluoro-4,5-dihydro-2-{4-isopropyl-sulfonylamino}cyclohexylmethylamino-3-thia-benzo[e]-azulene] | 3.2 nM
O=S(=O)(NC[C@H]1CC[C@H](Nc2nc3c(s2)CCCc2ccc(F)cc2-3)CC1)C(F)(F)F [Example 41, trans-1-Aza-9-fluoro-2-{4-trifluoromethylsulfonyl-aminomethyl}cyclohexylamino-4,5-dihydro-3-thiabenzo[e]-azulene] | 30 nM
CCS(=O)(=O)N[C@H]1CC[C@H](CNc2nc3c(s2)CCCc2ccc(F)cc2-3)CC1 [Example 52, trans-N2-(4-Ethylsulfonylamino)cyclohexylmethyl-9-fluoro-5,6-dihydro-4H-benzo[6,7]cyclohepta[d][1,3]-thiazol-2-amine] | 1.7 nM
CC(=O)NC[C@H]1CC[C@H](Nc2nc3c(s2)CCCc2ccc(F)cc2-3)CC1 [Example 81, N1-({4-[(9-fluoro-5,6-dihydro-4H-benzo[6,7]-cyclohepta-[d][1,3]thiazol-2-yl)amino]cyclohexyl}-methyl)acetamide] | 62 nM
COc1ccc(C)cc1S(=O)(=O)NCCOCCNc1nc2c(s1)CCCc1ccc(F)cc1-2 [Example 58, 1-Aza-9-fluoro-4,5-dihydro-2-{2-[2-(2-methoxy-5-methylphenyl)sulfonylamino]ethoxy}ethylamino-3-thia-benzo[e]azulene] | 3 nM
CCOC(=O)N[C@H]1CC[C@H](CNc2nc3c(s2)CCCc2ccc(F)cc2-3)CC1 [Example 68, trans-N2-(4-Ethoxycarbonylamino)cyclohexylmethyl-9-fluoro-5,6-dihydro-4H-benzo[6,7]cyclohepta[d][1,3]-thiazol-2-amine hydrochloride] | 4 nM
O=S(=O)(NC[C@H]1CC[C@H](Nc2nc3c(s2)CCCc2ccc(F)cc2-3)CC1)N1CCOCC1 [Example 76, trans-1-Aza-9-fluoro-4,5-dihydro-2-(4-(4-morpholinyl)-sulfonylaminomethyl)cyclohexylamino-3-thia-benzo[e]azulene] | 4.1 nM
O=S(=O)(NC[C@H]1CC[C@H](Nc2nc3c(s2)CCCc2ccc(F)cc2-3)CC1)c1cccnc1 [Example 59, trans-1-Aza-9-fluoro-4,5-dihydro-2-(4-(3-pyridyl)-sulfonylaminomethyl)cyclohexylamino-3-thia-benzo[e]-azulene] | 2.3 nM
COc1ccc2c(c1)-c1nc(NC[C@H]3CC[C@H](NS(C)(=O)=O)CC3)sc1CCO2 [Example 63, trans-1-Aza-4,5-dihydro-9-methoxy-2-{4-methylsulfonyl-amino}cyclohexylmethylamino-6-oxa-3-thia-benzo[e]azulene] | 31 nM

Further lines, results first:

Ki | SMILES
912 nM | CCOC(=O)NC[C@H]1CC[C@H](Nc2nc(-c3ccccc3OC)cs2)CC1 [Example 92, trans-2-(4-Ethoxycarbonylaminomethyl)cyclohexylamino-4-(2-methoxy)phenylthiazole hydrogen chloride]
5.9 nM | CCN(CC)S(=O)(=O)NCCCCCCNc1nc2c(s1)CCSc1ccccc1-2 [Example 101, N′-[6-(4,5-Dihydrobenzo[2,3]thiepino[4,5-d][1,3]thiazol-2-ylamino)hexyl]-N,N-diethylsulfamide]
11.9 nM | CCCN(C=O)C[C@H]1CC[C@H](Nc2nc3c(s2)CCCc2ccc(F)cc2-3)CC1 [Example 82, trans-1-Aza-9-fluoro-4,5-dihydro-2-(4-(N-propyl-formamido)-methyl)cyclohexylamino-3-thia-benzo[e]-azulene]
86 nM | CCN(C=O)[C@H]1CC[C@H](CNc2nc3c(s2)CCOc2ccccc2-3)CC1 [Example 87, trans-1-Aza-2-(4-(n-(ethyl) formamido)cyclohexyl)methyl-amino-4,5-dihydro-6-oxa-3-thia-benzo[e]azulene]
